Patent US8044200B2, “Synthesis and purification of pteroic acid and conjugates thereof” (Endocyte, Inc., priority 2005, dated 2011)

System: M109 cells
Experiment: Effect of isolated folate-fluorescein conjugates on growth of solid tumors (subcutaneous M109 tumors in fluorescein-immunized mice)
Format: in vivo
Conditions: female Balb/c mice preimmunized with KLH-fluorescein; s.c. M109 tumor; 500, 2000 or 5000 nmol/kg i.p., days 1-19; in combination with IL-2 and IFN-α; versus PBS control; FIG. 2
Method: Six to eight-week old (˜20-22 grams) female Balb/c mice (8 mice/group) were immunized subcutaneously at multiple sites with fluorescein-labeled keyhole limpet hemocyanin (KLH) using a commercial saponin adjuvant (GPI-0100; Galenica). After assuring that anti-fluorescein antibody titers were high in all mice (as evidenced by the results of ELISA assays of serum samples of the mice), each animal was injected subcutaneously in the shoulder with 1×10^6 M109 cells (a syngeneic lung cancer cell line that expresses high levels of the folate receptor; day 0) following prior immunization with KLH-fluorescein. The immunizations with folate-fluorescein after tumor cell implantation consisted of 500, 2000, or 5000 nmol/kg of folate-fluorescein, conjugated via a gamma carboxyl-linked ethylene diamine bridge, given in 19 intraperitoneal doses at 24 hour intervals (days 1-19). Control animals were injected with phosphate buffered saline (PBS). A series of 5 daily injections (five times a week) for three weeks of 20,000 IU/day of recombinant human IL-2 were administered to all mice in order to stimulate the immune system. A series of 3 injections for three weeks of 25,000 U/day of recombinant human IFN-α were also administered to all mice. The efficacy of this immunotherapy was then evaluated by monitoring tumor volume (mm^3) using a caliper.

For `Nc1nc2ncc(CNc3ccc(C(=O)NC(CCC(=O)NCCNC(=S)Nc4ccc5c(c4)C(=O)OC54c5ccc(O)cc5Oc5cc(O)ccc54)C(=O)O)cc3)nc2c(=O)[nH]1` (stereo not shown) [folate-fluorescein], the “growth of solid tumors (tumor volume)” value was “significantly inhibited”.
